The record followed here is ChEMBL document CHEMBL1125779, “Synthesis and evaluation of some nitrobenzenesulfonamides containing nitroisopropyl and (ureidooxy)methyl groups as novel hypoxic cell selective cytotoxic agents” (J Med Chem, 1991).

A short description of the data set: Partition coefficient was measured in n-octanol at the PH 7.4 buffer. The class given is physicochemical. The settings on record: octanol/water.

On to `CN(CCN)S(=O)(=O)c1ccc(C(C)(C)[N+](=O)[O-])c([N+](=O)[O-])c1`, for which the Partition coefficient is given as 0.37.

`CNCCN(C)S(=O)(=O)c1ccc(CONC(N)=O)c([N+](=O)[O-])c1`: the Partition coefficient is given as 0.28.

`O=[N+]([O-])c1nccn1CC(O)CN1CCCCC1` (stereo not drawn) [PIMONIDAZOLE] yielded a Partition coefficient of 0.4.
